The target in the test is T1, human IBAT (Homo sapiens, UniProt Q12908).
T1 construct: expressed in transfected cells; host or cells: Baby hamster kidney (BHK) cells, H14 cells
T1 sequence (Q12908 1-348): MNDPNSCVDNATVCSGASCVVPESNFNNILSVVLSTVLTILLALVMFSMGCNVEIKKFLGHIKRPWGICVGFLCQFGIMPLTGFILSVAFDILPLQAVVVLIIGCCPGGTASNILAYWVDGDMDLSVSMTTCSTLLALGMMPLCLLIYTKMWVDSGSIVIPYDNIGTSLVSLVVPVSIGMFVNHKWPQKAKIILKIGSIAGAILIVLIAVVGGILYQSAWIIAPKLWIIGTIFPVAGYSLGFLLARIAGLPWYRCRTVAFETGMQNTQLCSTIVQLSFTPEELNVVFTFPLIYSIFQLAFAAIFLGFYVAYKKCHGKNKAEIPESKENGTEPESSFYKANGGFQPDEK
Briefly: In vitro assay of compounds that inhibit IBAT-mediated uptake of [14C]-taurocholate (TC) in H14 cells. It counts as cell-based. The note with it: Table 8, 1, 4 and 1, 5 benzothiazipines. Here is the method: In Vitro Assay of Compounds that Inhibit IBAT-Mediated Uptake of [^14C]-Taurocholate (TC) in H14Cells
Baby hamster kidney cells (BHK) transfected with the cDNA of human IBAT (H14 cells) are seeded in 96 well Top-Count tissue culture plates at 60,000 cells/well for assays run within 24 hours of seeding, 30,000 cells/well for assays run within 48 hours, and 10,000 cells/well for assays run within 72 hours.
On the day of assay, the cell monolayer is gently washed once with […] (Dulbecco's Modified Eagle's medium with 4.5 g/L glucose plus 0.2% (w/v) fatty acid free bovine serum albumin ((FAF)BSA). To each well […] of a two-fold concentrate of test compound in assay buffer is added along with […] of […] [^14C]-taurocholate in assay buffer (final concentration of […] [^14C]-taurocholate). The cell culture plates are incubated 2 hours at 37° C. prior to gently washing each well twice with […] 4° C. Dulbecco's phosphate-buffered saline (PBS) containing 0.2% (w/v) (FAF)BSA. The wells are then gently washed once with […] 4° C. PBS without (FAF)BSA. To each […] of liquid, scintillation counting fluid is added. The plates are heat sealed and shaken for 30 minutes at room temperature prior to measuring the amount of radioactivity in each well on a Packard Top-Count instrument.

The results in this text go back to US20040077625A1, “Novel 1,4-benzothiazepine and 1,5-benzothiazepine compounds as inhibitors of apical sodium codependent bile acid transport abd taurocholate uptake” (priority 2001, published 2004).

For `CCCCC1(CCCC)CS(=O)(=O)c2ccc(N(C)C)cc2[C@@H](c2ccc(OC)cc2)N1` (racemic) [Compound 2, 3.3-Dibutyl-2.3,4,5-tetrahydro-7-dimethylamino-5-(4′-methoxyphenyl)-1,4-benzothiazepine 1,1-dioxide], half-maximal inhibition (IC50) required 497 nM.
